Data reported in US8349839B2, “Inhibitors of HIV replication” (Boehringer Ingelheim International GmbH, priority 2009, dated 2013).

How the values were obtained:
[1] = test system: HIV-1 replication in C8166 LTRluc cells; test: C8166 HIV-1 Luciferase Assay (EC50); format: cell-based; conditions: Human immunodeficiency virus 1, 72 h; assay of Example 68; C8166 LTRluc cells infected with HIV-1 at moi 0.005, 3 days
Method: (§1) Diluted solutions of stock solutions of compounds of Formula I in DMSO are prepared in assay buffer in Eppendorf tubes 16 h prior to their use in the biological assay, using a minimal supplementary volume of 75 μL of assay buffer in addition to the volume required in the assay. The samples are vortexed for 10 min at RT and incubated for 16 h at 4° C. The equilibrated solutions are centrifuged at 16 000 g for 5 min in a centrifuge equipped with an internal chiller, which is pre-equilibrated at 4° C., and the supernatant is collected. The portion of supernatant required for the serial dilutions in the biological assay is transferred to the compound dilution plate and a 75 μL portion of the remaining supernatant is transferred to a 1.4 mL tube (Micronic). A 25 μL volume of DMSO is promptly added and the sample is submitted for concentration determination by HPLC, along with the stock solution of the compound in DMSO as a standard for concentration determination analysis.
C8166 HIV-1 Luciferase Assay (EC50)
The assay used to measure inhibition of HIV replication is as described in WO 2004/050643, pages 73-75, incorporated herein by reference, with the following modifications:
Serial dilutions of HIV-1 inhibitors are prepared in complete media from DMSO stock solutions. Eleven serial dilutions of desired concentration are prepared in a 1 mL deep well titer plate (96 wells). The 12th well contains complete media with no inhibitor and serves as the positive control. All samples contain the same concentration of DMSO (<0.1% DMSO). Inhibitor is added, to triplicate wells, of a 96 well tissue culture treated clear view black microtiter plate (Corning Costar catalogue #3904). The total volume per well is 200 μL of media containing the cells and inhibitor. The last row is reserved for uninfected C8166 LTRluc cells to serve as the background blank control and the first row is media alone.
Count C8166 LTRluc cells and place in a minimal volume of complete RPMI 1640 in a tissue culture flask (ex. 30×10^6 cells in 10 mL media/25 cm^2 flask). Infect cells with HIV-1 at a moi of 0.005. Incubate cells for 1.5 h at 37° C. on a rotating rack in a 5% CO2 incubator. Resuspend cells in complete RPMI to give a final concentration of 25,000-cells/well. Add cells to wells of 96 well microtiter plate containing inhibitors. Add 25,000 uninfected C8166-LTRluc cells/well in 200 μL complete RPMI to last row for background control. Incubate cells at 37° C. in 5% CO2 incubator for 3 days.
50 μL Steady Glo (luciferase substrate T1/2=5 hours Promega catalogue # E2520) is added to each well of the 96 well plate. The relative light units (RLU) of luciferase are determined using a luminescence plate reader. The calculated % inhibition values are used to determine EC50, slope factor (n) and maximum inhibition (Imax).

[2] = biological target: HIV reverse transcriptase (Human immunodeficiency virus type 1 group M subtype B, UniProt P04585); test: HIV Reverse Transcriptase Assay (IC50); format: biochemical; conditions: assay of Example 67; 1 mM of ATP added to the reaction mixture
Method: as §1
HIV Reverse Transcriptase Assay (IC50)
The assay used to measure inhibition of HIV reverse transcriptase is as described in WO 2006/034583, pages 52-53, incorporated herein by reference, except that 1 mM of ATP was added to the reaction mixture.

Structure (SMILES) | EC50 [1] [nM] | IC50 [2] [nM]
CNC1CCN(c2ccc(-c3nc(=O)n(CCOC)c4c3oc3ccc(Cl)cc34)cn2)C1 (centres unmarked) [Compound 2254] | 210 | 40
COCCn1c(=O)nc(-c2ccc(N(C)CCN(C)C)nc2)c2oc3ccccc3c21 [Compound 1070] | 1200 | 310
COCCCN1c2c(oc3ccc(-c4ccc(CN(C)C)cc4)cc23)C(c2ccccc2)=NS1(=O)=O [Compound 3004] | 520 | > 205
O=c1nc(-c2ccccc2)c2oc3ccc(Cl)cc3c2n1CCN1CCCC1 [Compound 2001] | 3700 | 593
CN1CCN(c2ccc(-c3nc(=O)n(C)c4c3oc3ccc(Br)cc34)cn2)CC1 [Compound 2257] | 190 | 31
COCCn1c(=O)nc(-c2ccc(N)cc2)c2oc3ccc(Br)cc3c21 [Compound 2133] | 4650 | 760
COCCCN1CCN(c2ccc(-c3nc(=O)n(CCCOC)c4c3oc3ncccc34)cn2)CC1 [Compound 5001] | 590 | 60
CCNCC(=O)Nc1ccc(-c2nc(=O)n(CCOC)c3c2oc2ccc(-c4cccc5c4CCN(C)C5)cc23)cc1 [Compound 2115] |  | 1150
COCCn1c(=O)nc(-c2ccc(N3CCN(C(C)C)CC3)nc2)c2oc3ccccc3c21 [Compound 1073] | 720 | 107
CC(C)N1CCN(c2ccc(-c3nc(=O)n(CC(=O)N4CC[C@H](F)C4)c4c3oc3ccc(Cl)cc34)cn2)CC1 [Compound 2277] | 92 | 7
CN1CCc2cc(-c3ccc4oc5c(-c6ccc(F)cc6)nc(=O)n(CCN6CCCC6C(N)=O)c5c4c3)ccc2C1 (centres unmarked) [Compound 2025] | 52 | 35
O=c1nc(-c2ccccc2)c2oc3ccc(Cl)cc3c2n1CCN1CCC(F)(F)C1 [Compound 2009] | 2900 | 323
COCCn1c(=O)nc(-c2ccc(NC(=O)NCCN3CCCC3)cc2)c2oc3ccccc3c21 [Compound 1016] | 6800 | 107
COCCn1c(=O)nc(-c2ccc(NC(=O)CN3CCOCC3)cc2)c2oc3ccccc3c21 [Compound 1005] |  | 215
CCCCCn1c(=O)nc(-c2ccc3c(c2)nc(C)n3C)c2oc3ccc(-c4cnn(C)c4)cc3c21 [Compound 2287] | 18 | 5
CCNCC(=O)Nc1ccc(-c2nc(=O)n(CCOC)c3c2oc2ccc(-c4cncs4)cc23)cc1 [Compound 2021] | 200 | 20
CN1CCN(CC(=O)Nc2ccc(-c3nc(=O)n(C)c4c3oc3ccccc34)cc2)CC1 [Compound 1002] | 15000 | 11000
CN(C)Cc1ccc(-c2ccc3oc4c(c3c2)N(CC2CCCO2)S(=O)(=O)N=C4c2ccccc2)cc1 (centres unmarked) [Compound 3003] | 950 | > 225
COCCCn1c(=O)nc(-c2ccc(N3CCN(C)CC3)nc2)c2oc3ncc(-c4cncs4)cc3c21 [Compound 5028] | 21 | 4.1

Structure (SMILES) | EC50 [1] [nM] | IC50 [2] [nM]
COCCn1c(=O)nc(-c2ccc(NS(C)(=O)=O)cc2)c2oc3ccc(-c4ccc(CN(C)C)cc4)cc3c21 [Compound 2194] | 1500 | 395
CC(=O)N(C)C1CCN(CCn2c(=O)nc(-c3ccccc3)c3oc4ccc(Br)cc4c32)C1 (centres unmarked) [Compound 2038] | 2900 | 250
COCCn1c(=O)nc(-c2ccc(OCCN(C)C)cc2)c2oc3ccccc3c21 [Compound 1036] | 14000 | 633
COCCn1c(=O)nc(-c2ccc(NC(=O)CN(C)C)cc2)c2oc3ccccc3c21 [Compound 1004] | 3600 | 1150
O=C(O)Cn1c2ccc(Cl)cc2c2c1c(-c1ccccc1)nc(=O)n2CCN1CCCC1 [Compound 4001] | 5800 | 280
CCNCC(=O)Nc1ccc(-c2nc(=O)n(C)c3c2oc2ccccc23)cc1 [Compound 1051] | 980 | 520
CCCCCn1c(=O)nc(-c2ccc(N3CCN(C)CC3)nc2)c2oc3ncc(C#N)cc3c21 [Compound 5024] | 32 | 6
COCCn1c(=O)nc(-c2ccc(NC(=O)CN3CCCC3)c(OC)c2)c2oc3ccccc3c21 [Compound 1056] |  | 2500
CN(C)Cc1ccc(-c2ccc3oc4c(-c5ccccc5)nc(=O)n(CC(=O)NC5CC5)c4c3c2)cc1 [Compound 2310] |  | 1000
O=c1nc(-c2ccccc2)c2oc3ccccc3c2n1CCN1CCCC1 [Compound 1001] |  | 2350
COCCCn1c(=O)nc(-c2ccc(N3CCN(C(C)C)CC3)nc2)c2oc3cnccc3c21 [Compound 5019] | 280 | 25
COCCn1c(=O)nc(-c2ccc(N3CCN(C)CC3)nc2)c2oc3ccc(Cl)cc3c21 [Compound 2260] | 890 | 75
CCNCC(=O)Nc1ccc(-c2nc(=O)n(CCOC)c3c2oc2ccc(-c4ccc5c(c4)N(C)CCC5)cc23)cc1 [Compound 2039] | 440 | 24
CCNCC(=O)Nc1ccc(-c2nc(=O)n(CCOC)c3c2oc2ccccc23)cc1 [Compound 1009] | 675 | 73
CCNCc1nc2cc(-c3nc(=O)n(CCCOC)c4c3oc3ccc(Cl)cc34)ccc2n1C [Compound 2273] | 58 | 8
CN1CCN(c2ccc(-c3nc(=O)n(CCN4CCCC4)c4c3oc3ccc(Cl)cc34)cn2)CC1 [Compound 2232] | 240 | 22
CN(C)Cc1ccc(-c2ccc3oc4c(-c5ccccc5)nc(=O)n(-c5ccccc5)c4c3c2)cc1 [Compound 2213] | 235 | 86
COCCCn1c(=O)nc(-c2ccc(N3CCC(NCC(F)F)CC3)nc2)c2oc3ncc(-c4cnn(C)c4)cc3c21 [Compound 5004] |  | 14
